Assay: Ratio of AUC in mouse epithelial lining fluid to AUC in mouse serum
Type: ADME
Details: read-out: Ratio AUC

CC(C)(O/N=C(\C(=O)N[C@@H]1C(=O)N2C(C(=O)[O-])=C(C[n+]3ccccc3)CS[C@H]12)c1csc(N)n1)C(=O)O [CEFTAZIDIME]
Kp: 0.201

Reference: ChEMBL document CHEMBL3868634, “Animal models in the pharmacokinetic/pharmacodynamic evaluation of antimicrobial agents” (Bioorg Med Chem, 2016)
